Test system: CD4+ CD25− T cells activated in Th17-priming conditions
Type: cell-based, mouse
Conditions: 10 nM HF vs MAZ1310, mean ± SD, triplicate

O=C(CC1NCCCC1O)Cn1cnc2cc(Br)c(Cl)cc2c1=O (racemic) [HF, 7-bromo-6-chloro-3-[3-(3-hydroxy-2-piperidinyl)-2-oxopropyl]-4(3H)-quinazolinone]
Aars transcript, fold increase HF vs. MAZ1310-3 hr (3 hr): 2.7 ± 0.4 fold
Aff1 transcript, fold increase HF vs. MAZ1310-3 hr (3 hr): 2.3 ± 0.4 fold
Aldh18a1 transcript, fold increase HF vs. MAZ1310-3 hr (3 hr): 2.1 ± 0.5 fold
Asns transcript, fold increase HF vs. MAZ1310-3 hr (3 hr): 6.1 ± 1.2 fold
Atf3 transcript, fold increase HF vs. MAZ1310-3 hr (3 hr): 3.0 ± 0.1 fold
Atf5 transcript, fold increase HF vs. MAZ1310-3 hr (3 hr): 2.4 ± 0.1 fold
Cars transcript, fold increase HF vs. MAZ1310-3 hr (3 hr): 2.2 ± 0.4 fold
Cd274 transcript, fold increase HF vs. MAZ1310-3 hr (3 hr): 2.1 ± 0.2 fold
Cebpb transcript, fold increase HF vs. MAZ1310-3 hr (3 hr): 3.9 ± 0.6 fold
Cebpg transcript, fold increase HF vs. MAZ1310-3 hr (3 hr): 2.5 ± 0.5 fold
Chd2 transcript, fold increase HF vs. MAZ1310-3 hr (3 hr): 2.2 ± 0.3 fold
Cldn12 transcript, fold increase HF vs. MAZ1310-3 hr (3 hr): 3.2 ± 0.7 fold
Clic4 transcript, fold increase HF vs. MAZ1310-3 hr (3 hr): 2.4 ± 0.2 fold
Cth transcript, fold increase HF vs. MAZ1310-3 hr (3 hr): 2.2 ± 0.7 fold
Cxcl10 transcript, fold increase HF vs. MAZ1310-3 hr (3 hr): 2.1 ± 0.3 fold
D8Ertd56e transcript, fold increase HF vs. MAZ1310-3 hr (3 hr): 2.1 ± 0.3 fold
Ddit3 transcript, fold increase HF vs. MAZ1310-3 hr (3 hr): 5.6 ± 1.1 fold
Et4Ebp1 transcript, fold increase HF vs. MAZ1310-3 hr (3 hr): 6.8 ± 1.8 fold
Gpt2 transcript, fold increase HF vs. MAZ1310-3 hr (3 hr): 10.0 ± 1.2 fold
Herpud1 transcript, fold increase HF vs. MAZ1310-3 hr (3 hr): 2.4 ± 0.3 fold
Icam1 transcript, fold increase HF vs. MAZ1310-3 hr (3 hr): 2.0 ± 0.1 fold
Irf1 transcript, fold increase HF vs. MAZ1310-3 hr (3 hr): 2.0 ± 0.3 fold
Lers transcript, fold increase HF vs. MAZ1310-3 hr (3 hr): 2.3 ± 0.3 fold
Mpa2l transcript, fold increase HF vs. MAZ1310-3 hr (3 hr): 2.3 ± 0.3 fold
Ncoa7 transcript, fold increase HF vs. MAZ1310-3 hr (3 hr): 3.0 ± 0.3 fold
Nfkbiz transcript, fold increase HF vs. MAZ1310-3 hr (3 hr): 2.0 ± 0.3 fold
Past1 transcript, fold increase HF vs. MAZ1310-3 hr (3 hr): 2.1 ± 0.5 fold
Pck2 transcript, fold increase HF vs. MAZ1310-3 hr (3 hr): 4.9 ± 0.8 fold
Pdcd1lg2 transcript, fold increase HF vs. MAZ1310-3 hr (3 hr): 3.2 ± 0.7 fold
Phgdh transcript, fold increase HF vs. MAZ1310-3 hr (3 hr): 3.8 ± 0.9 fold
Psph transcript, fold increase HF vs. MAZ1310-3 hr (3 hr): 3.5 ± 0.4 fold
Pvr transcript, fold increase HF vs. MAZ1310-3 hr (3 hr): 2.0 ± 0.3 fold
Pycr1 transcript, fold increase HF vs. MAZ1310-3 hr (3 hr): 4.6 ± 0.7 fold
Pycs transcript, fold increase HF vs. MAZ1310-3 hr (3 hr): 2.1 ± 0.2 fold
Sars1 transcript, fold increase HF vs. MAZ1310-3 hr (3 hr): 2.0 ± 0.3 fold
Sesn2 transcript, fold increase HF vs. MAZ1310-3 hr (3 hr): 2.6 ± 0.3 fold
Slamf7 transcript, fold increase HF vs. MAZ1310-3 hr (3 hr): 2.2 ± 0.4 fold
Slc1a4 transcript, fold increase HF vs. MAZ1310-3 hr (3 hr): 3.2 ± 0.9 fold
Slc6a9 transcript, fold increase HF vs. MAZ1310-3 hr (3 hr): 2.4 ± 0.3 fold
Slc7a3 transcript, fold increase HF vs. MAZ1310-3 hr (3 hr): 2.0 ± 0.2 fold
Slc14a1 transcript, fold increase HF vs. MAZ1310-3 hr (3 hr): 2.0 ± 0.1 fold
Trib3 transcript, fold increase HF vs. MAZ1310-3 hr (3 hr): 7.1 ± 2.0 fold
Trim12 transcript, fold increase HF vs. MAZ1310-3 hr (3 hr): 2.4 ± 0.1 fold
Vegfa transcript, fold increase HF vs. MAZ1310-3 hr (3 hr): 3.2 ± 0.2 fold
Xist transcript, fold increase HF vs. MAZ1310-3 hr (3 hr): 3.5 ± 1.7 fold
Aars transcript, fold increase HF vs. MAZ1310-6 hr (6 hr): 2.6 ± 0.2 fold
Aff1 transcript, fold increase HF vs. MAZ1310-6 hr (6 hr): 2.6 ± 0.3 fold
Aldh18a1 transcript, fold increase HF vs. MAZ1310-6 hr (6 hr): 2.7 ± 0.2 fold
Asns transcript, fold increase HF vs. MAZ1310-6 hr (6 hr): 7.1 ± 0.5 fold
Atf3 transcript, fold increase HF vs. MAZ1310-6 hr (6 hr): 3.2 ± 0.5 fold
Atf5 transcript, fold increase HF vs. MAZ1310-6 hr (6 hr): 8.9 ± 1.0 fold
Cars transcript, fold increase HF vs. MAZ1310-6 hr (6 hr): 2.2 ± 0.3 fold
Cd274 transcript, fold increase HF vs. MAZ1310-6 hr (6 hr): 2.0 ± 0.1 fold
Cebpb transcript, fold increase HF vs. MAZ1310-6 hr (6 hr): 8.0 ± 0.2 fold
Cebpg transcript, fold increase HF vs. MAZ1310-6 hr (6 hr): 3.1 ± 0.5 fold
Chd2 transcript, fold increase HF vs. MAZ1310-6 hr (6 hr): 2.5 ± 0.5 fold
Cldn12 transcript, fold increase HF vs. MAZ1310-6 hr (6 hr): 4.6 ± 0.5 fold
Clic4 transcript, fold increase HF vs. MAZ1310-6 hr (6 hr): 2.8 ± 0.2 fold
Cth transcript, fold increase HF vs. MAZ1310-6 hr (6 hr): 16.0 ± 1.6 fold
Cxcl10 transcript, fold increase HF vs. MAZ1310-6 hr (6 hr): 2.1 ± 0.1 fold
D8Ertd56e transcript, fold increase HF vs. MAZ1310-6 hr (6 hr): 3.1 ± 0.8 fold
Ddit3 transcript, fold increase HF vs. MAZ1310-6 hr (6 hr): 5.0 ± 0.7 fold
Et4Ebp1 transcript, fold increase HF vs. MAZ1310-6 hr (6 hr): 5.3 ± 0.3 fold
Gpt2 transcript, fold increase HF vs. MAZ1310-6 hr (6 hr): 16.7 ± 2.2 fold
Herpud1 transcript, fold increase HF vs. MAZ1310-6 hr (6 hr): 2.7 ± 0.1 fold
Icam1 transcript, fold increase HF vs. MAZ1310-6 hr (6 hr): 2.8 ± 0.3 fold
Irf1 transcript, fold increase HF vs. MAZ1310-6 hr (6 hr): 2.6 ± 0.2 fold
Lers transcript, fold increase HF vs. MAZ1310-6 hr (6 hr): 2.1 ± 0.0 fold
Mpa2l transcript, fold increase HF vs. MAZ1310-6 hr (6 hr): 7.3 ± 1.7 fold
Ncoa7 transcript, fold increase HF vs. MAZ1310-6 hr (6 hr): 3.2 ± 0.5 fold
Nfkbiz transcript, fold increase HF vs. MAZ1310-6 hr (6 hr): 1.9 ± 0.3 fold
Past1 transcript, fold increase HF vs. MAZ1310-6 hr (6 hr): 2.6 ± 0.0 fold
Pck2 transcript, fold increase HF vs. MAZ1310-6 hr (6 hr): 7.4 ± 0.9 fold
Pdcd1lg2 transcript, fold increase HF vs. MAZ1310-6 hr (6 hr): 2.5 ± 0.3 fold
Phgdh transcript, fold increase HF vs. MAZ1310-6 hr (6 hr): 4.2 ± 0.3 fold
Psph transcript, fold increase HF vs. MAZ1310-6 hr (6 hr): 3.4 ± 0.3 fold
Pvr transcript, fold increase HF vs. MAZ1310-6 hr (6 hr): 2.0 ± 0.1 fold
Pycr1 transcript, fold increase HF vs. MAZ1310-6 hr (6 hr): 6.6 ± 0.4 fold
Pycs transcript, fold increase HF vs. MAZ1310-6 hr (6 hr): 2.3 ± 0.1 fold
Sars1 transcript, fold increase HF vs. MAZ1310-6 hr (6 hr): 2.3 ± 0.1 fold
Sesn2 transcript, fold increase HF vs. MAZ1310-6 hr (6 hr): 2.3 ± 0.2 fold
Slamf7 transcript, fold increase HF vs. MAZ1310-6 hr (6 hr): 2.1 ± 0.2 fold
Slc1a4 transcript, fold increase HF vs. MAZ1310-6 hr (6 hr): 4.6 ± 0.4 fold
Slc6a9 transcript, fold increase HF vs. MAZ1310-6 hr (6 hr): 5.7 ± 0.6 fold
Slc7a3 transcript, fold increase HF vs. MAZ1310-6 hr (6 hr): 6.5 ± 0.9 fold
Slc14a1 transcript, fold increase HF vs. MAZ1310-6 hr (6 hr): 6.6 ± 0.4 fold
Trib3 transcript, fold increase HF vs. MAZ1310-6 hr (6 hr): 18.5 ± 8.5 fold
Trim12 transcript, fold increase HF vs. MAZ1310-6 hr (6 hr): 4.9 ± 0.7 fold
Vegfa transcript, fold increase HF vs. MAZ1310-6 hr (6 hr): 5.8 ± 0.5 fold
Xist transcript, fold increase HF vs. MAZ1310-6 hr (6 hr): 2.1 ± 0.7 fold

Source: patent US20110212100A1, “METHODS FOR MODULATING DEVELOPMENT AND EXPANSION OF IL-17 EXPRESSING CELLS” (priority 2007, published 2011)
